From patent US12492183B2, “Tetrahydroquinazoline derivatives as selective cytotoxic agents” (Merck Sharp & Dohme LLC, priority 2020, dated 2025)

Test system: PBMCs infected with VSV-G pseudotyped HIV virus (VSV-G/pNLG1-P2A-ΔEnv)
Assay: cells
Type: cell-based
Settings: Homo sapiens, PBMC, read-out: TACK EC50

Compound | EC50
Cc1nc(C)c(Cc2ccc3c(c2)NC(=O)N(C(C)C)[C@]3(C#CC2CC2)C(F)(F)F)c(=O)[nH]1 [Example 23, (S)-4-(cyclopropylethynyl)-7-((2,4-dimethyl-6-oxo-1,6-dihydropyrimidin-5-l)meth-yl)-3-isopropyl-4-(trifluoro-methyl)-3,4-dihydroquin-azolin-2(1H)-one] | 151 nM
Nc1ncc(F)c(Cc2ccc3c(c2)NC(=O)N[C@]3(C#CC2CC2)C(F)(F)F)n1 [Example 15, (S)-7-((2-amino-5-fluoropyrimi-din-4-yl)methyl)-4-(cycloprop-ylethynyl)-4-(trifluoromethyl)-3,4-dihydroquinazolin-2(1H)-one] | 21.4 nM
Cc1cnc(N)nc1Cc1ccc2c(c1)NC(=O)N[C@]2(C#CC1CC1)C(F)(F)F [Example 34, (S)-7-((2-amino-5-methylpyr-imidin-4-yl)methyl)-4-(cyclo-propylethynyl)-4-(trifluoro-methyl)-3,4-dihydroquinazo-lin-2(1H)-one] | 155 nM
NS(=O)(=O)c1ccc(Cc2ccc3c(c2)NC(=O)N[C@]3(C#CC2CC2)C(F)(F)F)c(F)c1 [Example 6, (S)-4-((4-(cyclopropylethynyl)-2-oxo-4-(trifluoromethyl)-1,2,3,4-tetrahydroquinazolin-7-yl)methyl)-3-fluorobenzenesulfonamide] | 284 nM
Nc1nc(Cl)cc(Cc2ccc3c(c2)NC(=O)N[C@]3(C#CC2CC2)C(F)(F)F)n1 [Example 48, (S)-7-((2-amino-6-chloropyrimidin-4-yl)methyl)-4-(cyclopropylethynyl)-4-(trifluoromethyl)-3,4-dihydroquinazolin-2(1H)-one] | 142 nM
NC(=O)c1c(Cc2ccc3c(c2)NC(=O)N[C@]3(C#CC2CC2)C(F)(F)F)ccnc1N [Example 55] | 191 nM
